Test results reported in PubChem BioAssay (NCI).
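Exposure lasted 48 hours, with cells grown in 96-well plates and compounds tested at five concentrations. GI50 is the concentration that inhibits growth by half. TGI: concentration producing complete growth inhibition.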

Key:
Assay in all cases: NCI anticancer screen, dose series, 48 h
HCT-116 colon = test system: HCT-116 colon
OVCAR-5 ovarian = test system: OVCAR-5 ovarian
SK-OV-3 ovarian = test system: SK-OV-3 ovarian
RPMI-8226 leukemia = test system: RPMI-8226 leukemia
SN12C renal = test system: SN12C renal
HT29 colon = test system: HT29 colon
U251 CNS = test system: U251 CNS
MOLT-4 leukemia = test system: MOLT-4 leukemia
SF-268 CNS = test system: SF-268 CNS
OVCAR-3 ovarian = test system: OVCAR-3 ovarian
SR leukemia = test system: SR leukemia
PC-3 prostate = test system: PC-3 prostate
NCI-H522 lung = test system: NCI-H522 lung
SF-539 CNS = test system: SF-539 CNS
HOP-62 NSCLC = test system: HOP-62 NSCLC
EKVX NSCLC = test system: EKVX NSCLC
RXF 393 renal = test system: RXF 393 renal
LOX IMVI melanoma = test system: LOX IMVI melanoma
MDA-MB-231 breast = test system: MDA-MB-231 breast
COLO 205 colon = test system: COLO 205 colon
HCT-15 colon = test system: HCT-15 colon
SK-MEL-2 melanoma = test system: SK-MEL-2 melanoma
OVCAR-4 ovarian = test system: OVCAR-4 ovarian
CAKI-1 renal = test system: CAKI-1 renal
MDA-MB-435 = test system: MDA-MB-435
SW-620 colon = test system: SW-620 colon
NCI-H226 lung = test system: NCI-H226 lung
BT-549 breast = test system: BT-549 breast
MDA-N = test system: MDA-N
SK-MEL-5 melanoma = test system: SK-MEL-5 melanoma
NCI-H460 lung = test system: NCI-H460 lung
MALME-3M melanoma = test system: MALME-3M melanoma
TK-10 renal = test system: TK-10 renal
T-47D breast = test system: T-47D breast
UO-31 renal = test system: UO-31 renal
786-0 renal = test system: 786-0 renal
CCRF-CEM leukemia = test system: CCRF-CEM leukemia
IGROV1 ovarian = test system: IGROV1 ovarian
K-562 leukemia = test system: K-562 leukemia
KM12 colon = test system: KM12 colon
NCI/ADR-RES ovarian = test system: NCI/ADR-RES ovarian
HOP-92 NSCLC = test system: HOP-92 NSCLC
M14 melanoma = test system: M14 melanoma
DU-145 prostate = test system: DU-145 prostate
NCI-H23 lung = test system: NCI-H23 lung
A498 renal = test system: A498 renal
UACC-257 melanoma = test system: UACC-257 melanoma
MCF7 breast = test system: MCF7 breast
SK-MEL-28 melanoma = test system: SK-MEL-28 melanoma
SNB-19 CNS = test system: SNB-19 CNS
A549 NSCLC = test system: A549 NSCLC
UACC-62 melanoma = test system: UACC-62 melanoma
SNB-75 CNS = test system: SNB-75 CNS
ACHN renal = test system: ACHN renal
HL-60(TB) leukemia = test system: HL-60(TB) leukemia
SF-295 CNS = test system: SF-295 CNS
OVCAR-8 ovarian = test system: OVCAR-8 ovarian
HCC-2998 colon = test system: HCC-2998 colon
HS 578T breast = test system: HS 578T breast
LXFL 529 NSCLC = test system: LXFL 529 NSCLC
KM20L2 colon = test system: KM20L2 colon
HOP-18 NSCLC = test system: HOP-18 NSCLC
DLD-1 colon = test system: DLD-1 colon

## O=C1CSC(c2ccccc2)N1c1nc2cc3sc(N4C(=O)CSC4c4ccccc4)nc3cc2s1 (stereo not drawn)
HCT-116 colon
  TGI: > 100 µM
OVCAR-5 ovarian
  TGI: > 100 µM
SK-OV-3 ovarian
  TGI: > 100 µM
RPMI-8226 leukemia
  TGI: > 100 µM
SN12C renal
  TGI: > 100 µM
HT29 colon
  TGI: > 100 µM
U251 CNS
  TGI: > 100 µM
MOLT-4 leukemia
  TGI: > 100 µM
SF-268 CNS
  TGI: > 100 µM
OVCAR-3 ovarian
  TGI: > 100 µM
SR leukemia
  TGI: > 100 µM
PC-3 prostate
  TGI: > 100 µM
NCI-H522 lung
  TGI: > 100 µM
SF-539 CNS
  TGI: 15.6 µM
HOP-62 NSCLC
  TGI: > 100 µM
EKVX NSCLC
  TGI: > 100 µM
RXF 393 renal
  TGI: > 100 µM
LOX IMVI melanoma
  TGI: > 100 µM
MDA-MB-231 breast
  TGI: > 100 µM
COLO 205 colon
  TGI: > 26.9 µM
HCT-15 colon
  TGI: > 100 µM
SK-MEL-2 melanoma
  TGI: > 100 µM
OVCAR-4 ovarian
  TGI: > 100 µM
CAKI-1 renal
  TGI: > 100 µM
MDA-MB-435
  TGI: > 100 µM
SW-620 colon
  TGI: > 100 µM
NCI-H226 lung
  TGI: > 96.6 µM
BT-549 breast
  TGI: > 100 µM
MDA-N
  TGI: > 100 µM
SK-MEL-5 melanoma
  TGI: > 100 µM
NCI-H460 lung
  TGI: > 100 µM
MALME-3M melanoma
  TGI: > 100 µM
TK-10 renal
  TGI: > 100 µM
T-47D breast
  TGI: > 100 µM
UO-31 renal
  TGI: > 100 µM
786-0 renal
  TGI: > 100 µM
CCRF-CEM leukemia
  TGI: > 84.1 µM
IGROV1 ovarian
  TGI: > 100 µM
K-562 leukemia
  TGI: > 100 µM
KM12 colon
  TGI: > 100 µM
NCI/ADR-RES ovarian
  TGI: > 100 µM
HOP-92 NSCLC
  TGI: > 100 µM
M14 melanoma
  TGI: > 100 µM
DU-145 prostate
  TGI: > 100 µM
NCI-H23 lung
  TGI: > 100 µM
A498 renal
  TGI: > 100 µM
UACC-257 melanoma
  TGI: > 100 µM
MCF7 breast
  TGI: > 100 µM
SK-MEL-28 melanoma
  TGI: > 100 µM
SNB-19 CNS
  TGI: > 100 µM
A549 NSCLC
  TGI: > 100 µM
UACC-62 melanoma
  TGI: > 100 µM
SNB-75 CNS
  TGI: > 92.3 µM
ACHN renal
  TGI: > 100 µM
HL-60(TB) leukemia
  TGI: > 100 µM
SF-295 CNS
  TGI: > 100 µM
OVCAR-8 ovarian
  TGI: > 100 µM
HCC-2998 colon
  TGI: > 100 µM
HS 578T breast
  TGI: > 100 µM

## Cc1sc2nc(N(C)C)oc(=O)c2c1C
HCT-116 colon
  TGI: > 100 µM
OVCAR-5 ovarian
  TGI: > 100 µM
SK-OV-3 ovarian
  TGI: > 100 µM
RPMI-8226 leukemia
  TGI: > 100 µM
SN12C renal
  TGI: > 100 µM
HT29 colon
  TGI: > 100 µM
U251 CNS
  TGI: > 100 µM
MOLT-4 leukemia
  TGI: > 100 µM
SF-268 CNS
  TGI: > 100 µM
SR leukemia
  TGI: > 100 µM
PC-3 prostate
  TGI: > 100 µM
NCI-H522 lung
  TGI: > 100 µM
SF-539 CNS
  TGI: > 100 µM
HOP-62 NSCLC
  TGI: > 100 µM
EKVX NSCLC
  TGI: > 100 µM
RXF 393 renal
  TGI: > 100 µM
LOX IMVI melanoma
  TGI: > 100 µM
MDA-MB-231 breast
  TGI: > 100 µM
COLO 205 colon
  TGI: > 100 µM
HCT-15 colon
  TGI: > 100 µM
SK-MEL-2 melanoma
  TGI: > 100 µM
OVCAR-4 ovarian
  TGI: > 100 µM
CAKI-1 renal
  TGI: > 100 µM
MDA-MB-435
  TGI: > 100 µM
SW-620 colon
  TGI: > 100 µM
NCI-H226 lung
  TGI: > 100 µM
BT-549 breast
  TGI: 49.1 µM
MDA-N
  TGI: > 100 µM
SK-MEL-5 melanoma
  TGI: > 100 µM
NCI-H460 lung
  TGI: > 100 µM
MALME-3M melanoma
  TGI: > 100 µM
TK-10 renal
  TGI: > 100 µM
T-47D breast
  TGI: > 100 µM
UO-31 renal
  TGI: > 100 µM
786-0 renal
  TGI: > 100 µM
CCRF-CEM leukemia
  TGI: > 100 µM
IGROV1 ovarian
  TGI: > 100 µM
K-562 leukemia
  TGI: > 100 µM
KM12 colon
  TGI: > 100 µM
NCI/ADR-RES ovarian
  TGI: > 100 µM
HOP-92 NSCLC
  TGI: > 100 µM
M14 melanoma
  TGI: > 100 µM
DU-145 prostate
  TGI: > 100 µM
NCI-H23 lung
  TGI: > 100 µM
A498 renal
  TGI: > 100 µM
UACC-257 melanoma
  TGI: > 100 µM
MCF7 breast
  TGI: > 100 µM
SK-MEL-28 melanoma
  TGI: > 100 µM
SNB-19 CNS
  TGI: > 100 µM
A549 NSCLC
  TGI: > 100 µM
UACC-62 melanoma
  TGI: > 100 µM
SNB-75 CNS
  TGI: > 100 µM
ACHN renal
  TGI: > 100 µM
HL-60(TB) leukemia
  TGI: > 100 µM
SF-295 CNS
  TGI: > 100 µM
OVCAR-8 ovarian
  TGI: > 100 µM
HCC-2998 colon
  TGI: > 100 µM
HS 578T breast
  TGI: > 100 µM

## CC(=O)[CH-]C(=O)c1ccccc1.CC(=O)[CH-]C(=O)c1ccccc1.O=C([O-])c1ccc([O-])cc1.O=C([O-])c1ccc([O-])cc1.[Ti+4]
HCT-116 colon
  GI50: 41.4 µM
  TGI: > 100 µM
OVCAR-5 ovarian
  GI50: 74.5 µM
  TGI: > 100 µM
SK-OV-3 ovarian
  GI50: > 100 µM
  TGI: > 100 µM
RPMI-8226 leukemia
  GI50: 20.7 µM
  TGI: 62.8 µM
SN12C renal
  GI50: 51.3 µM
  TGI: > 100 µM
HT29 colon
  GI50: 51.2 µM
  TGI: > 100 µM
U251 CNS
  GI50: 45 µM
  TGI: > 100 µM
MOLT-4 leukemia
  GI50: 23.8 µM
  TGI: 79.3 µM
SF-268 CNS
  GI50: 25 µM
  TGI: > 100 µM
OVCAR-3 ovarian
  GI50: 33.4 µM
  TGI: > 100 µM
NCI-H522 lung
  GI50: 22.8 µM
  TGI: 70.9 µM
LXFL 529 NSCLC
  GI50: 31.1 µM
  TGI: > 100 µM
SF-539 CNS
  GI50: 40.2 µM
  TGI: > 100 µM
HOP-62 NSCLC
  GI50: 35.1 µM
  TGI: > 100 µM
EKVX NSCLC
  GI50: 23.9 µM
  TGI: 79.6 µM
RXF 393 renal
  GI50: 15.3 µM
  TGI: 56.4 µM
LOX IMVI melanoma
  GI50: 28.9 µM
  TGI: > 100 µM
COLO 205 colon
  GI50: 20.6 µM
  TGI: 40.1 µM
HCT-15 colon
  GI50: 56.6 µM
  TGI: > 100 µM
KM20L2 colon
  GI50: 51.1 µM
  TGI: > 100 µM
SK-MEL-2 melanoma
  GI50: 36.9 µM
  TGI: > 100 µM
OVCAR-4 ovarian
  GI50: 57.1 µM
  TGI: > 100 µM
CAKI-1 renal
  GI50: 35.6 µM
  TGI: > 100 µM
SW-620 colon
  GI50: 43 µM
  TGI: > 100 µM
NCI-H226 lung
  GI50: 37.3 µM
  TGI: > 100 µM
SK-MEL-5 melanoma
  GI50: 43.9 µM
  TGI: > 100 µM
NCI-H460 lung
  GI50: 44.2 µM
  TGI: > 100 µM
MALME-3M melanoma
  GI50: 23.6 µM
  TGI: 66.8 µM
UO-31 renal
  GI50: 23.1 µM
  TGI: 76.4 µM
786-0 renal
  GI50: 54.4 µM
  TGI: > 100 µM
CCRF-CEM leukemia
  GI50: 15.4 µM
  TGI: 62.8 µM
IGROV1 ovarian
  GI50: 84.3 µM
  TGI: > 100 µM
K-562 leukemia
  GI50: 33.5 µM
  TGI: > 100 µM
KM12 colon
  GI50: 25 µM
  TGI: 90.1 µM
M14 melanoma
  GI50: 40.2 µM
  TGI: > 100 µM
NCI-H23 lung
  GI50: 66.2 µM
  TGI: > 100 µM
SK-MEL-28 melanoma
  GI50: 41.6 µM
  TGI: > 100 µM
SNB-19 CNS
  GI50: 52.3 µM
  TGI: > 100 µM
HOP-18 NSCLC
  GI50: 68.8 µM
  TGI: > 100 µM
A549 NSCLC
  GI50: 69.1 µM
  TGI: > 100 µM
UACC-62 melanoma
  GI50: 37.2 µM
  TGI: > 100 µM
SNB-75 CNS
  GI50: 29.1 µM
  TGI: > 100 µM
ACHN renal
  GI50: 75 µM
  TGI: > 100 µM
DLD-1 colon
  GI50: > 100 µM
  TGI: > 100 µM
HL-60(TB) leukemia
  GI50: 20.5 µM
  TGI: 67.6 µM
SF-295 CNS
  GI50: 41.6 µM
  TGI: > 100 µM
OVCAR-8 ovarian
  GI50: 46.5 µM
  TGI: > 100 µM
HCC-2998 colon
  GI50: 46.3 µM
  TGI: > 100 µM
